Reference: publication PMC8620685, “Effect of Selected Silyl Groups on the Anticancer Activity of 3,4-Dibromo-5-Hydroxy-Furan-2(5H)-One Derivatives” (Pharmaceuticals, 2021)
Read-outs that look alike come from different tables or passages of the source.

How the values were obtained:
HCT 116 wt = assay: MTT assay, HCT 116 wt; type: cell-based, human
Experimental: (§1) The in vitro antitumor activities of the MBA and its derivatives (Table 2) were assayed against a panel of human cancer cell lines (HCT116, HCT-116 ^−/−p53, HT-29, MCF-7, SJSA-1, U2OS, HepG2 and Hep3B) using the MTT assay. As a reference drug we used 5-fluorouracil (5-FU). […] On the basis of in vitro antiproliferative activities, compounds 3b and 3c were selected for further mechanistic studies in the HCT-116 cell line.
(§2) Human cells lines: colon cancer (HCT-116 wt, HT-29), non-small lung carcinoma (A549), and bronchial epithelial cells (BEAS-2B) were obtained from American Type Culture Collection (ATCC, Manassas, VA, USA). Isogenic cell line HCT 116 p53^−/− (deleted both p53 alleles) were a gift from Dr. Bert Vogelstein. Other cell lines, namely MCF-7, SJSA-1, U2OS, HepG2, and Hep3B were received from the collection stored at Centre of Biotechnology of Silesian University of Technology. All cells were grown in DMEM with a high glucose medium (Sigma-Aldrich, Taufkirchen, Germany) supplemented with 10% (v/v) inactivated fetal bovine serum (FBS) (EURx, Gdańsk, Poland) and 1% antibiotics (10,000 μg/mL of streptomycin and 10,000 units/ml of penicillin) (Sigma-Aldrich, Taufkirchen, Germany) at 37 °C in humidified 5% CO2. The maximum concentration of DMSO in the culture media was 0.4%.
(§3) 5 × 10^3 cells per well for the MCF-7 cell line and 2.5 × 10^3 cells per well for the other cell lines were seeded in 96-well plates to adhere for 24 h. Afterward, the cells were treated with tested compounds. After 72 hours of incubation, 50 μL 0.5 mg/ml solution of MTT (3-(4,5-dimethylthiazol-2-yl)-2,5-diphenyl-2H-tetrazolium bromide) were added to each well and the plates were incubated for 3 h at 37 °C. Next, the MTT solution was removed from the plates and formed formazan crystals were dissolved in 2-propanol (Avantor Performance Materials, Gliwice, Poland) containing 0.04 M hydrochloric acid (Avantor Performance Materials, Gliwice, Poland). The absorbance was measured at 570 nm wavelength using a multiwall plate reader (BioTek, Winooski, VT, USA). The experiment was performed at a minimum of 3 independent replicates. Cell viability was set as a percentage versus vehicle control. IC50 was defined as a concentration of a drug that decreased cell viability by 50% relative to the untreated control.

HCT 116 p53−/− = assay: MTT assay, HCT 116 p53−/−; type: cell-based; conditions: Homo sapiens, read-out: IC50 (cytotoxicity), HCT 116 p53−/−
Experimental: as §1, §2, §3

HT-29 = assay: MTT assay, HT-29; type: cell-based; conditions: Homo sapiens, read-out: IC50 (cytotoxicity), HT-29
Experimental: as §1, §2, §3

MCF-7 = assay: MTT assay, MCF-7; type: cell-based, human
Experimental: as §1, §2, §3

U2OS = assay: MTT assay, U2OS; type: cell-based; conditions: Homo sapiens, MTT, 72 h incubation, read-out: IC50 (cytotoxicity), U2OS
Experimental: as §1, §2, §3

SJSA-1 = assay: MTT assay, SJSA-1; type: cell-based; conditions: Homo sapiens, SJSA-1; MTT, 72 h incubation; read-out: IC50 (cytotoxicity), SJSA-1
Experimental: as §1, §2, §3

HepG2 = assay: MTT assay, HepG2; type: cell-based; conditions: Homo sapiens, HepG2; MTT, 72 h incubation; read-out: IC50 (cytotoxicity), HepG2
Experimental: as §1, §2
as §3, with “The experiment was performed at a minimum of 3 independent replicates. Cell viability was set as a percentage versus vehicle control. IC50 was defined as a concentration of a drug that decreased cell viability by 50% relative to the untreated control.” left out

Hep3B = assay: MTT assay, Hep3B; type: cell-based; conditions: Homo sapiens, MTT, 72 h incubation, read-out: IC50 (cytotoxicity), Hep3B
Experimental: as §1, §2, §3

A549 = assay: MTT assay, NSCLC cell line A549; type: cell-based, human; conditions: for IC50: Homo sapiens, A549, MTT, 72 h incubation, read-out: IC50 (cytotoxicity), A549; for SI: selectivity, A549 versus BEAS-2B
Experimental: (§4) One of the major drawbacks of currently used anticancer drugs is their low selectivity, which often leads to undesired side effects that may be harmful to patients. Overcoming this challenging task requires special attention at the pre-clinical development level. To check whether silyl group incorporation may affect the selectivity of compounds towards cancer cells, MBA and all its new silyl derivatives were tested for their efficacy on noncancerous BEAS-2B and cancerous A549 cells line. […] In contrast, compounds 3a and 3d were more cytotoxic to A549 cells with SI values 6.05 and 1.72, respectively. Strikingly, those two compounds have similar cLogP values 3.08 and 3.22, respectively.
as §2, §3

[1] = MTT assay, normal bronchial epithelium cell line BEAS-2B; type: cell-based; conditions: human, BEAS-2B cells (noncancerous bronchial epithelial cells); MTT, 72 h incubation; noncancerous cells; read-out: IC50 (cytotoxicity), BEAS-2B
Experimental: as §4, §2, §3

HCT-116 cells = assay: Annexin V-FITC/PI apoptosis assay; type: cell-based, human; conditions: HCT-116, statement in discussion
Experimental: To verify this thesis, we utilized annexin-V/PI double staining of cells, which were subsequently subjected to flow cytometric analysis.
The HCT 116 cells were seeded in 6-well plate (Nunc, ThermoFisher, Waltham, MA, USA) at a density of 5 × 10^4 cells/well and allowed to attach. After 24 h the medium was replaced with tested compounds. The cells were then incubated for 24 h at 37 °C. Next, both floating and adherent cells were harvested and centrifuged at 600× g. The cells were washed with PBS (phosphate buffered saline) (Sigma-Aldrich, Taufkirchen, Germany) and we followed instructions from the manufacturer of the Annexin V-FITC Apoptosis Detection Kit (Biotool, Jupiter, FL, USA). Fluorescence was measured using a Becton Dickinson FACS Aria III sorter (BD Company, San Diego, CA, USA). Experiments were repeated at least twice. Data were analyzed using FCE Express 7 Software (DeNovo Software, Pasadena, CA, USA).

[2] = Homo sapiens, HCT-116, 72 h, read-out: IC50 (cytotoxicity), HCT 116 wt, MTT, 72 h incubation
[3] = Homo sapiens, MCF7, 72 h, read-out: IC50 (cytotoxicity), MCF-7, MTT, 72 h incubation

O=c1[nH]cc(F)c(=O)[nH]1 [5FU, 5-fluorouracil, reference compound]
IC50 (HCT 116 wt; Homo sapiens, HCT-116, 72 h, MTT, 72 h incubation, read-out: IC50 (cytotoxicity), HCT 116 wt): 6.3 ± 1 µM | IC50 (HCT 116 p53−/−; HCT-116, MTT, 72 h incubation): 13.4 ± 1.5 µM | IC50 (HT-29; HT-29, MTT, 72 h incubation): 32.8 ± 4.7 µM | IC50 (MCF-7; Homo sapiens, MCF7, 72 h, MTT, 72 h incubation, read-out: IC50 (cytotoxicity), MCF-7): 29.7 ± 1.4 µM | IC50 (U2OS): 89.8 ± 2.1 µM

CC(C)(C)[Si](C)(C)OC1OC(=O)C(Br)=C1Br (stereo not drawn) [Compound 3a, 3,4-Dibromo-5-(tert-butyldimethylsilyloxy)-furan-2(5H)-one]
IC50 (HCT 116 wt; [2]): 1.4 µM | IC50 (HCT 116 wt; human, 72 h): 1.3 ± 0.12 µM | IC50 (HCT 116 p53−/−; HCT-116, 72 h): 21.4 ± 3.4 µM | IC50 (HT-29; HT-29, 72 h): 88.7 ± 8.2 µM | IC50 (MCF-7; [3]): 186 ± 14.2 µM | IC50 (SJSA-1): 196 ± 5.4 µM | IC50 (HepG2): 135 ± 6 µM | IC50 (Hep3B): 135 ± 6.1 µM | IC50 (A549): 23.4 ± 6.6 µM | SI (A549): 6.05 | IC50 at 72 h [1]: 142 ± 23.1 µM | induction of apoptosis / cell death in HCT-116 (HCT-116 cells): failed to induce apoptosis

CC[Si](CC)(CC)OC1OC(=O)C(Br)=C1Br (stereo not drawn) [Compound 3d, 3,4-Dibromo-5-(trietylsilyloxy)-furan-2(5H)-one]
IC50 (HCT 116 wt; [2]): 1.6 ± 0.4 µM | IC50 (HCT 116 p53−/−; HCT-116, 72 h): 4.4 ± 0.4 µM | IC50 (MCF-7; [3]): 89 µM | IC50 (MCF-7; human, 72 h): 89.2 ± 6 µM | IC50 (A549): 4.7 ± 0.1 µM | SI (A549): 1.72 | IC50 at 72 h [1]: 8.1 ± 1.2 µM
